Earlier results as cited in patent US5780426A, “Fivemer cyclic peptide inhibitors of diseases involving αv β3” (IXSYS, Incorporated, priority 1995, dated 1998).
Bridge positions count the residues as written; N and C are the ends. Ends that are not written are not given here.

Legend:
αv β3 receptor = conditions: chicken embryo tumor model; Brooks et al., Cell 1994
integrin αv β3 = integrin αv β3 (Homo sapiens, UniProt P05106+P06756); conditions: Koivunen et al. 1995
osteoclasts = conditions: Horton et al. 1991
angiogenesis = conditions: Nicosia and Bonanno 1991

integrin αv β3, sequence (P06756 31-889 limits assumed): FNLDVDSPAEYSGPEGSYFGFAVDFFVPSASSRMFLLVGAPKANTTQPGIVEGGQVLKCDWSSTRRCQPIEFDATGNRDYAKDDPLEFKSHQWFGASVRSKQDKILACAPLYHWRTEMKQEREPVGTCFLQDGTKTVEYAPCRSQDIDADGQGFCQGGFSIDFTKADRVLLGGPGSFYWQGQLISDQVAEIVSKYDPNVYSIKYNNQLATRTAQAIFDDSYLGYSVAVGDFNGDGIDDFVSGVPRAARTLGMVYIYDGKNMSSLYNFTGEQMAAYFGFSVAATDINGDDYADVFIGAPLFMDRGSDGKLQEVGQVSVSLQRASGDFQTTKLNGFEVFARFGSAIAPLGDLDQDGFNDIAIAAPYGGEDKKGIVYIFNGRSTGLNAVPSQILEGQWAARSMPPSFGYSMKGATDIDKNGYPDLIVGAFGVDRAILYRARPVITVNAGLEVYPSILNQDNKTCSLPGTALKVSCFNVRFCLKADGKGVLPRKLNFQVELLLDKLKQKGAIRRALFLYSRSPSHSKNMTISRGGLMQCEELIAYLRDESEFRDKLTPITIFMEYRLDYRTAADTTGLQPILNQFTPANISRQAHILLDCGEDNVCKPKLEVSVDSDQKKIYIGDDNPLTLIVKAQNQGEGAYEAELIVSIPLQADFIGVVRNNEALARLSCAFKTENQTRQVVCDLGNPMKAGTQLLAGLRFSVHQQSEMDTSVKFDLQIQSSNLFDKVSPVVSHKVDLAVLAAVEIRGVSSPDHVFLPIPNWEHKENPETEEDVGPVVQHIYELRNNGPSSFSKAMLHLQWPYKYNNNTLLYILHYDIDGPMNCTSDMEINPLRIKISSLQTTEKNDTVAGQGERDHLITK
integrin αv β3, sequence (P06756 891-1048 partner limits assumed): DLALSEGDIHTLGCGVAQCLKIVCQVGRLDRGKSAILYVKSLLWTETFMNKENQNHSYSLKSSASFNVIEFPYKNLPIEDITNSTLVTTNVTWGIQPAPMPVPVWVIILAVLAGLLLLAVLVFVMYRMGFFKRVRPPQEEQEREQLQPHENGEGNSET
integrin αv β3, sequence (P05106 27-788): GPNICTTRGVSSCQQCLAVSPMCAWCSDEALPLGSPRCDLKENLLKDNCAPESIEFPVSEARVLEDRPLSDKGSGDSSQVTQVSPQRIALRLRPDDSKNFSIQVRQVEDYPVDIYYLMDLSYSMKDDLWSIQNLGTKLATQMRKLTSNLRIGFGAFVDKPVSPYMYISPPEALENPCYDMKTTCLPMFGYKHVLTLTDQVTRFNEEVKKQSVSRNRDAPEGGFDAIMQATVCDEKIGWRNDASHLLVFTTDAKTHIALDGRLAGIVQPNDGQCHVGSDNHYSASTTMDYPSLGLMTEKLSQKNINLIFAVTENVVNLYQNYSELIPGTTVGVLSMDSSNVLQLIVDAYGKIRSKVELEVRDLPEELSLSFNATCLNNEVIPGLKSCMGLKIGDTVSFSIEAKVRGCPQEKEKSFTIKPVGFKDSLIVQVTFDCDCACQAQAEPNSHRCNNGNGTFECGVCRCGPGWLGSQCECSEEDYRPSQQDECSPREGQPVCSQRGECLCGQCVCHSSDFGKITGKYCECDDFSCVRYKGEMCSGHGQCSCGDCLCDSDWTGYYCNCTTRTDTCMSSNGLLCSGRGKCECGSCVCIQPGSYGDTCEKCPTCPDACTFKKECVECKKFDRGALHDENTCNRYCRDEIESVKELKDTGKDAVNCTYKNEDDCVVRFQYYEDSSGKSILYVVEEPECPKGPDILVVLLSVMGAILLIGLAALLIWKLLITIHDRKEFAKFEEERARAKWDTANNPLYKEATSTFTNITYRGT

Compound: CC(C)[C@@H]1NC(=O)[C@@H](Cc2ccccc2)NC(=O)[C@H](CC(=O)O)NC(=O)CNC(=O)[C@H](CCCN=C(N)N)NC1=O [cyclo-RGDfv]
- inhibition of angiogenesis / neovascularization (αv β3 receptor): inhibit the neovascularization process

Compound: ACPSRLDSPCG (disulfide 2-10 (inferred)) [RLD peptide synthesized from a random cyclic phage library (Koivunen et al.)]
- selectivity for the integrin αv β3 (integrin αv β3): only partially selective
- activity relative to an RGD peptide (fold lower) (integrin αv β3; binding and cell adhesion assays): 100-1000 fold

Compound: GRGDSP [Arg-Gly-Asp containing peptide]
- osteoclast function (osteoclasts): disruption of osteoclast function

Compound: Gly-Arg-Gly-Asp-Ser (GRGDS)
- inhibition of angiogenesis in vitro (angiogenesis): inhibits angiogenesis in vitro
